Reference: patent US20240360135A1, “IMIDAZO[1,2-B]PYRIDAZINYL COMPOUNDS AND USES THEREOF” (Sumitomo Pharma Oncology, Inc., priority 2021, published 2024)
Read-outs that look alike come from different tables or passages of the source.

How the values were obtained:
[1] = target: T1, PIM1 (Homo sapiens, UniProt P11309); assay: RBC HotSpot kinase inhibition assay, PIM1; assay type: biochemical
T1 construct: purchased Invitrogen PV3503
Experimental: (§1) Reagents. Base Reaction Buffer: 20 mM Hepes (pH 7.5), 10 mM MgCl2, 1 mM EGTA, 0.01% Brij35, 0.02 mg/ml BSA, 0.1 mM Na3VO4, 2 mM DTT, 1% DMSO. The following kinases were used in the assay at the indicated concentrations:
(§2) The following substrates were used in combination with the indicated kinases in the assay at the indicated concentration:
(§3) No cofactors were added to any of the reactions.
(§4) • 1. Prepared substrate in freshly prepared Reaction Buffer. • 2. Delivered kinase into the substrate solution and gently mixed. • 3. Delivered test compound in 100% DMSO into the kinase reaction mixture by Acoustic technology (Echo550; nanoliter range), incubated for 20 minutes at room temperature. • 4. Delivered ^33P-ATP into the reaction mixture to initiate the reaction. • 5. Incubated for 2 hours at room temperature. • 6. Detected kinase activity by P81 filter-binding method.
(§5) The results of the RBC HotSpot™ kinase assay are set forth in Table 1, wherein “A” indicates an IC50<10 nM, “B” indicates an IC50 wherein 10 nM≤IC50≤100 nM, and “C” indicates an IC50>100 nM.

[2] = target: T2, PIM3 (Homo sapiens, UniProt Q86V86); assay: RBC HotSpot kinase inhibition assay, PIM3; assay type: biochemical
T2 construct: purchased Millipore 14-738
Experimental: as §1, §2, §3, §4, §5

[3] = tested on: A549 cells; assay: Wound healing assay in A549 cells with TGF-β; assay type: cell-based; conditions: for IC50: Homo sapiens, wound healing, A549, 5 ng/ml TGF-β; for migration (wound closure): after 72 hours, vs vehicle control with TGF-β
Excerpt: Overview. Epithelial to mesenchymal transition (EMT) is used to describe epithelial cells losing their cell to cell adhesion and polarity while gaining migratory and invasive properties. The process of EMT is required for normal embryonic development and wound healing, but has also been implicated in fibrosis. In humans, TGF-β signaling is the main driver of EMT, and inhibiting this pathway may be beneficial in various diseases such as fibrosis. A wound healing assay was used to study cell migration and cell-cell interaction, and probe the EMT properties of lung epithelial cells (A549) in presence of Compound 2 or Compound 4.
Procedure. A549 cells (ATCC, CCL-185) were seeded into the ImageLock plate (Essen Bioscience) at 2×10^4 cells/well in 100 μL of complete growth media. Cells were incubated overnight at 37° C., 5% CO2. The next day, cells were washed with 1×PBS and Compound 2, Compound 4, DMSO control (±TGF-β) or galunisertib (TGF-β inhibitor used as positive control) was added to the cells in a serum-free F12K media (0.2% DMSO final, 10 μM starting concentration, 3-fold dilution, 8-doses) in presence of 5 ng/ml TGF-β. Cells were incubated for 48 hours (until they reached confluency) at 37° C., 5% CO2. Wounds were simultaneously created using a WoundMaker™ (Essen Bioscience). Debris and non-attached cells were removed by gently washing once with F12K.
Test compound or control compound and TGF-β were added to the cells in F12K+10% FBS as previously described. The ImageLock plate was put into IncuCyteS3 instrument installed inside a 5% CO2 incubator. The plate was allowed to equilibrate in the IncuCyteS3 instrument for 15 minutes prior to scheduling the first scan and data recording. The plate was incubated for 72 hours at 37° C., and wound closure was recorded in real time with the IncuCyte S3 imaging system. Percentage of relative wound density was quantitatively calculated by the IncuCyte software.

[4] = tested on: bleomycin-induced lung fibrosis; assay: Bleomycin-induced lung fibrosis model in mice; assay type: in vivo, C57BL/6J mice; conditions: day 21
Experimental: Overview. The most common animal model of pulmonary fibrosis is the bleomycin-induced lung fibrosis model in rodents. This model is commonly used to investigate biology and potential therapies for fibrotic diseases affecting the lung, such as idiopathic pulmonary fibrosis (IPF). Bleomycin, a cytotoxic drug, is administered to mice or rats, and causes direct cell injury triggered by DNA strand breaks, which leads to an overproduction of reactive oxygen species causing inflammation, pulmonary toxicity, activation of fibroblasts and subsequent fibrosis. Fibrosis is hallmarked by aberrant activation of lung epithelial cells and accumulation of fibroblasts and myofibroblasts with excessive production of extracellular matrix such as collagen.
Hydroxyproline is a major component of protein collagen, and plays a key role in the stability of the collagen triple helix. […]
Procedure. […] The snap frozen portion of the lung tissue was subjected to hydroxyproline quantification, which is used as a common biomarker of fibrosis. […] The histological sections were scored using a modified Ashcroft scale, the number of mononuclear cell aggregates and alveolar mixed infiltrates as well as the levels of collagen. The mice were weighed on day seven, fourteen, and twenty-one to monitor weight changes, and mortality and clinical observations were recorded daily. […]

T1 sequence (P11309 whole entry): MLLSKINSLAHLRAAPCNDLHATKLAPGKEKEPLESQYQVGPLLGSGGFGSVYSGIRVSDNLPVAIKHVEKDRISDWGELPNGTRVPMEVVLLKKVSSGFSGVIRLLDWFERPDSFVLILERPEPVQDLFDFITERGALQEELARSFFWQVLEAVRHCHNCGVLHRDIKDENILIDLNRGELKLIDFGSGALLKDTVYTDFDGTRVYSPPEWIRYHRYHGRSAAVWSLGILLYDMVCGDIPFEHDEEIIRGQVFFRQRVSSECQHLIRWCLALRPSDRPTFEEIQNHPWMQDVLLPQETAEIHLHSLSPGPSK

Structure (SMILES) | IC50 [1] | IC50 [2] | IC50 ([3]; 24 h, read-out: IC50 (μM) 24 h) | IC50 ([3]; 48 h, read-out: IC50 (μM) 48 h) | IC50 ([3]; 72 h, read-out: IC50 (μM) 72 h) | migration (wound closure) [3] | Ashcroft score ([4]; 20 milligrams per kilogram twice a day) | reduction of hydroxyproline in lung tissue ([4]; 15 milligrams per kilogram twice a day)
Cc1cc(-c2cnc3ccc(NC45CCC(C(C)(C)O)(CC4)CC5)nn23)n[nH]1 [Compound 2, 2-(4-((3-(5-methyl-1H-pyrazol-3-yl)imidazo[1,2-b]pyridazin-6-yl)amino)bicyclo[2.2.2]octan-1-yl)propan-2-ol] | < 10 nM | < 10 nM | 1 to 10 µM | 1 to 10 µM | 1 to 10 µM | strongly inhibited | significantly reduced | –
CC(C)(O)C12CCC(Nc3ccc4ncc(-c5cc(C6CC6)[nH]n5)n4n3)(CC1)CC2 [Compound 4, 2-(4-((3-(5-cyclopropyl-1H-pyrazol-3-yl)imidazo[1,2-b]pyridazin-6-yl)amino)bicyclo[2.2.2]octan-1-yl)propan-2-ol] | < 10 nM | < 10 nM | 1 to 10 µM | 1 to 10 µM | 1 to 10 µM | strongly inhibited | – | greatest and most statistically significant reduction
